Data on twelve molecules can be found in patent US20230061736A1, “GPR119 AGONISTS” (Kallyope, Inc., priority 2019, published 2023).

Molecules are shown by their SMILES. Read-outs that look alike come from different tables or passages of the source.

In data set [1] the target is T1, human GPR119 (hGPR119) (Homo sapiens, UniProt Q8TDV5).
T1 construct: expressed in transfected cells
T1 sequence (Q8TDV5 1-335): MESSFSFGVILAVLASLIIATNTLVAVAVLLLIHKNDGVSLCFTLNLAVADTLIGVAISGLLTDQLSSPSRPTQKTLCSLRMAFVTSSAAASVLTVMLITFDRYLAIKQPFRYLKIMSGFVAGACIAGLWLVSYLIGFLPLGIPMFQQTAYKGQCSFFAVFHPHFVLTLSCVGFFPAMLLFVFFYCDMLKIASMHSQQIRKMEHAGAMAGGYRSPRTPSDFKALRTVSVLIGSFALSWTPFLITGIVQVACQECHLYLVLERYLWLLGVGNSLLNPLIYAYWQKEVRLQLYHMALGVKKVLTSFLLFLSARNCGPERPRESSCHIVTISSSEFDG
In words: cAMP accumulation assay (cAMP Gs dynamic HTRF kit). The class given is cell-based. The following applies: CHO-K1 cells stably expressing hGPR119, 4-parameter fit; for Emax: 1 h, % activity normalized to Max/Min controls; for EC50: cAMP accumulation. A digest of the protocol:
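Read-out is HTRF 665/620 nm ratio after 1 h detection at ambient temperature, converted to % activity against positive and negative controls, EC50 and Max activity by 4-parameter fit. Compounds were titrated onto ~10,000 thawed hGPR119-CHO-K1 cells/well for 60 min at 37° C/5% CO2.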
Background: Changes in cAMP serve as a functional read-out for many G protein-coupled receptors.

Data set [2] can be described thus: In vivo plasma levels in mice after oral gavage. Also noted: species or system C57BL/6J mice. To be noted: mouse, 30 mpk oral gavage; for Exposure unbound (plasma): total exposure x free fraction from plasma protein binding. As for the experimental part: Male C57BL/6J mice 10-12 weeks old were dosed with test article or vehicle [0.25% (w/v) methylcellulose, 5% (v/v) Polysorbate 80, and 0.02% (w/v) sodium lauryl sulfate in Hanks' Balanced Salt solution (all final concentrations)] by oral gavage at a volume of 10 mL/kg. Animals were euthanized with carbon dioxide 7-8 h post dose. Blood was collected for measurement of plasma concentrations of test article. Unbound exposure was calculated by multiplying the measured total exposure by the free fraction as assessed from plasma protein binding.
Plasma protein binding to isotonic phosphate buffer (PBS) containing 10% C57 BL/6 mouse plasma was determined using equilibrium dialysis of plasma spiked with test article (2 μM) against a dialysis buffer (100 mM sodium phosphate and 150 mM NaCl). At the end of the dialysis (4 hr), aliquots of the plasma and buffer were processed by protein precipitation for LC-MS/MS analysis to quantitate the test article.

For data set [3] the following is noted: in rats; Bioorganic & Medicinal Chemistry Letters 27(5), 2017, 1124-1128 (Compound 17 in the reference); cited from earlier work.
Data set [4] in a line: In vivo plasma levels in mice after oral gavage. Also noted: species or system C57BL/6J mice. The following applies: mouse, 30 mpk oral gavage, 2 h post-dose; for concentration at 2 h: male, C57BL/6J, plasma, 30 mg/kg, read-out: Exposure Total (plasma).
Data set [5] is described as follows: Oral bioavailability in mice. To be noted: mouse, in vivo; C57BL/6 mice; IV 1 mg/kg, PO 30 mg/kg. On the procedure: Compounds were dosed IV at 1 mg/kg as a formulation of 0.5 mg/mL in 5% DMSO+30% PEG400+65% water and PO at 30 mg/kg as a formulation of 6 mg/mL in 0.25% methylcellulose+5% Tween 80+0.02% SDS in water (Compound 42) or 0.5% methylcellulose+0.5% Tween 80 in water (Compound 83).

Setting [6] is: male, C57BL/6J, plasma, 30 mg/kg, 7 h post-dose, read-out: Exposure Total (plasma).

Consider `O=C(NC[C@H](O)[C@@H](O)[C@H](O)[C@H](O)CO)C1CN(C(=O)Cc2ccc(OCCCC3CCN(c4ncc(Cl)cn4)CC3)cc2F)C1` (racemic) [Example 37, 1-[2-[4-[3-[1-(5-chloropyrimidin-2-yl)-4-piperidyl]propoxy]-2-fluoro-phenyl]acetyl]-N-[rac-(2S,3R,4R,5R)-2,3,4,5,6-pentahydroxyhexyl]azetidine-3-carboxamide], for which, in data set [1], the Emax (in general, the maximal effect, on the per cent scale that the assay sets) is 100 to 130% and the EC50 – broadly, the concentration that produces a half-maximal response – is 100 to 1000 nM. The concentration at 7 h in data set [2] (setting [6]) came out at 551 nM. Also, the “Exposure unbound (plasma)” value in data set [2] (7 h post-dose) turned out to be 1.1 nM.
In data set [1], `O=C(CC1CN(C(=O)Cc2ccc(OCCCC3CCN(c4ncc(Cl)cn4)CC3)cc2F)C1)NC[C@H](O)[C@@H](O)[C@H](O)[C@H](O)CO` (racemic) [Example 38, 2-[1-[2-[4-[3-[1-(5-chloropyrimidin-2-yl)-4-piperidyl]propoxy]-2-fluoro-phenyl]acetyl]azetidin-3-yl]-N-[rac-(2S,3R,4R,5R)-2,3,4,5,6-pentahydroxyhexyl]acetamide] registered an Emax not below 130% and an EC50 of 100 to 1000 nM. Also, the concentration at 7 h in data set [2] (setting [6]) was 76 nM. Moreover, the “Exposure unbound (plasma)” value in data set [2] (7 h post-dose) is 0.2 nM.
Turning to `COCc1cnc(N2CCC([C@H]3C[C@H]3CCOc3cc(F)c(CC(=O)N4CCC4)c(F)c3)CC2)nc1` [1-(azetidin-1-yl)-2-(2,6-difluoro-4-(2-((1S,2R)-2-(1-(5-(methoxymethyl)pyrimidin-2-yl)piperidin-4-yl)cyclopropyl)ethoxy)phenyl)ethan-1-one], the bioavailability (commonly the share of a dose that reaches the circulation, judged against a reference dose that is usually intravenous) in data set [3] is recorded as 80%.
On to `COc1c(Nc2ccc(S(C)(=O)=O)nc2C)ncnc1OC1CCN(C(=O)OC(C)C)CC1` [APD597, isopropyl 4-((5-methoxy-6-((2-methyl-6-(methylsulfonyl)pyridin-3-yl)amino)pyrimidin-4-yl)oxy)piperidine-1-carboxylate, reference compound], for which, in data set [4], the concentration at 2 h came out at 16.2 µM.
In data set [1], `O=C(NC(CO)(CO)CO)C1CN(C(=O)Cc2ccc(OCCCC3CCN(c4ncc(Cl)cn4)CC3)cc2F)C1` [Example 29, 1-[2-[4-[3-[1-(5-chloropyrimidin-2-yl)-4-piperidyl]propoxy]-2-fluoro-phenyl]acetyl]-N-[2-hydroxy-1,1-bis(hydroxymethyl)ethyl]azetidine-3-carboxamide] showed a maximal effect (Emax) not below 130% and an EC50 not above 100 nM. Further, the concentration at 7 h in data set [2] (setting [6]) amounted to 354 nM. In addition, the “Exposure unbound (plasma)” value in data set [2] (7 h post-dose) is on record as 0.7 nM.
For `O=C(Cc1ccc(OCCCC2CCN(c3ncc(Cl)cn3)CC2)cc1F)N1CC(CNC[C@H](O)[C@@H](O)[C@H](O)[C@H](O)CO)C1` [Example 42, 2-[4-[3-[1-(5-chloropyrimidin-2-yl)-4-piperidyl]propoxy]-2-fluoro-phenyl]-1-[3-[[[(2S,3R,4R,5R)-2,3,4,5,6-pentahydroxyhexyl]amino]methyl]azetidin-1-yl]ethanone], in data set [5], the bioavailability was found to be 2.4%. In data set [1], this molecule showed an Emax of 100 to 130% and an EC50 of 100 to 1000 nM. Besides, in data set [4], the concentration at 2 h stood at 0.806 µM. In data set [4] (total exposure x free fraction from plasma protein binding), the “Exposure unbound (plasma)” value was 2.4 nM. Further, in data set [2] (male, C57BL/6J, plasma, 30 mg/kg, 8 h post-dose, read-out: Exposure Total (plasma)), the concentration at 8 h amounted to 369 nM. In addition, the “Exposure unbound (plasma)” value in data set [2] (8 h post-dose) stood at 1.1 nM.
In data set [1], `O=C(Cc1ccc(OCCCC2CCN(c3ncc(Cl)cn3)CC2)cc1F)N1CC(CNC(CO)(CO)CO)C1` [Example 44, 2-[4-[3-[1-(5-chloropyrimidin-2-yl)-4-piperidyl]propoxy]-2-fluoro-phenyl]-1-[3-[[[2-hydroxy-1,1-bis(hydroxymethyl)ethyl]amino]methyl]azetidin-1-yl]ethanone] yielded an Emax not below 130% and an EC50 not above 100 nM. Further, in data set [2] (setting [6]), the concentration at 7 h turned out to be 668 nM. In addition, the “Exposure unbound (plasma)” value in data set [2] (7 h post-dose) was determined as 0.7 nM.
The molecule `COCc1cnc(N2CCC(CCCOc3ccc(CC(=O)N4CC(CNC[C@H](O)[C@@H](O)[C@H](O)[C@H](O)CO)C4)c(F)c3)CC2)nc1` [Example 83, 2-[2-fluoro-4-[3-[1-[5-(methoxymethyl)pyrimidin-2-yl]-4-piperidyl]propoxy]phenyl]-1-[3-[[[(2S,3R,4R,5R)-2,3,4,5,6-pentahydroxyhexyl]amino]methyl]azetidin-1-yl]ethanone] displayed a bioavailability in data set [5] of 1.4%. In data set [1], this molecule displayed an Emax of 100 to 130% and an EC50 of 100 to 1000 nM.
Take `O=C(Cc1ccc(OCC[C@@H]2C[C@@H]2C2CCN(c3ncc(Cl)cn3)CC2)cc1F)N1CC(CNC[C@H](O)[C@@H](O)[C@H](O)[C@H](O)CO)C1` [Example 86, 2-[4-[2-[(1S,2R)-2-[1-(5-chloropyrimidin-2-yl)-4-piperidyl]cyclopropyl]ethoxy]-2-fluoro-phenyl]-1-[3-[[[(2S,3R,4R,5R)-2,3,4,5,6-pentahydroxyhexyl]amino]methyl]azetidin-1-yl]ethanone]: in data set [1], the Emax fell in the range of 100 to 130% and the EC50 was 100 to 1000 nM. Moreover, in data set [2] (setting [6]), the concentration at 7 h came out at 67 nM. Moreover, the “Exposure unbound (plasma)” value in data set [2] (7 h post-dose) was found to be 0.1 nM.
In data set [1], `CCOc1cnc(N2CCC(CCCOc3cc(F)c(CC(=O)N4CCC(O)(CNCC(CO)(CO)CO)C4)c(F)c3)CC2)nc1` (stereo not shown) [Example 189, 2-[4-[3-[1-(5-ethoxypyrimidin-2-yl)-4-piperidyl]propoxy]-2,6-difluoro-phenyl]-1-[3-hydroxy-3-[[[3-hydroxy-2,2-bis(hydroxymethyl)propyl]amino]methyl]pyrrolidin-1-yl]ethanone] had an Emax of 100 to 130% and an EC50 not above 100 nM.
In data set [1], `COCc1cnc(N2CCC(CCCOc3cc(F)c(CC(=O)N4CCC(O)(CNCC(CO)(CO)CO)C4)c(F)c3)CC2)nc1` (stereo not shown) [Example 190, 2-[2,6-difluoro-4-[3-[1-[5-(methoxymethyl)pyrimidin-2-yl]-4-piperidyl]propoxy]phenyl]-1-[3-hydroxy-3-[[[3-hydroxy-2,2-bis(hydroxymethyl)propyl]amino]methyl]pyrrolidin-1-yl]ethanone] gave an Emax of 100 to 130% and an EC50 not above 100 nM.
Turning to `CC(C)c1noc(N2CCC(COc3ccc(-c4ccc(S(C)(=O)=O)cc4)nc3)CC2)n1` [GSK1292263, 3-isopropyl-5-(4-(((6-(4-(methylsulfonyl)phenyl)pyridin-3-yl)oxy)methyl)piperidin-1-yl)-l,2,4-oxadiazole, reference compound], the concentration at 2 h in data set [4] amounted to 7.84 µM.
